Laboratory results as given in patent US20170007608A1, “ACTIVATORS OF PYRUVATE KINASE M2 AND METHODS OF TREATING DISEASE” (AGIOS PHARMACEUTICALS, INC, priority 2011, published 2017).

Columns and labels:
PKM2 = PKM2 (Homo sapiens, UniProt P14618); assay: PKM2 Assay Procedure (LDH/NADH-coupled, absorbance at 340 nm); format: biochemical; settings: PKM2 activation
Method: B refers to an activator of PKM2 with an AC50 between 100 nM and 500 nM. C refers to an activator of PKM2 with an AC50 greater than 500 nM. AC50s described here in Tables 1 and 2 and FIGS. 1 and 2A-2D are measured according to the “PKM2 Assay Procedure” below.
• PKM2 stock enzyme solution was diluted in Reaction Buffer • 2 μL of compound was added into each well first, and then 180 μL of the Reaction Mix was added. • Reaction mixture with compound (without ADP) were incubated for 30 minutes at 4° C. • Plates were re-equilibrated to room temperature prior to adding 20 μL ADP to initiate the reaction. • Reaction progress was measured as changes in absorbance at 340 nm wavelength at room temperature (25° C.)

A549 cells = assay: Growth inhibition (GI50) side-by-side in regular RPMI versus BME medium; format: cell-based; settings: A549 cells treated for 72 hours
Method: FIGS. 9A-9F are graphs depicting the effect of various cytotoxic agents on A549 cell growth in BME.
Cells grown in BME media are not generally more sensitive to cytotoxic agents (FIGS. 9A-9F). A549 cells were grown in RPMI (FIG. 9A, 9B or 9C) or in BME (FIGS. 9D, 9E, and 9F). […] The effect of the PKM2 activators appears to by cytostatic (no induction of apoptosis).

Chain of PKM2 (P14618 whole entry): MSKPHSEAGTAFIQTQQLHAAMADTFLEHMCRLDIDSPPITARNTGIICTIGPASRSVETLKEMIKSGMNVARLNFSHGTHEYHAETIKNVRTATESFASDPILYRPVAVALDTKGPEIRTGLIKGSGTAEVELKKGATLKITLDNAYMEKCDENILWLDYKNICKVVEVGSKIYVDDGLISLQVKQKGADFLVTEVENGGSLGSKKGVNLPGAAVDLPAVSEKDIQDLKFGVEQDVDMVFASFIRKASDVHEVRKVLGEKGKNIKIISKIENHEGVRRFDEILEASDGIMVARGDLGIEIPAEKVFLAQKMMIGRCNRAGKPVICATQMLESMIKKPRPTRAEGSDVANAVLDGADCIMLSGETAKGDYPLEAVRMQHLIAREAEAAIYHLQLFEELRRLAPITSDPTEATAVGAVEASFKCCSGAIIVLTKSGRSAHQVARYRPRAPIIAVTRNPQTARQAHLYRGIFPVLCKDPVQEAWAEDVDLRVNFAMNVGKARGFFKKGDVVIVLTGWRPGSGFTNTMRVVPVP

SMILES: O=S(=O)(c1ccc2c(c1)OCCO2)N1CCN(S(=O)(=O)c2c(F)cccc2F)CC1
- AC50 (PKM2; Table 1): < 100 nM

SMILES: Cc1cc2c(s1)c1cnn(Cc3ccccc3F)c(=O)c1n2C
- AC50 (PKM2; Table 1): < 100 nM

SMILES: Cc1cc(C)cc(NS(=O)(=O)c2cccn2-c2ncc(C(F)(F)F)cc2Cl)c1
- AC50 (PKM2; Table 1): < 100 nM

SMILES: O=S(=O)(Nc1ccc(Cl)cc1)c1cccn1-c1ncc(C(F)(F)F)cc1Cl
- AC50 (PKM2; Table 1): < 100 nM

SMILES: O=S(=O)(Nc1ccccc1C(F)(F)F)c1cccn1-c1ncc(C(F)(F)F)cc1Cl
- AC50 (PKM2; Table 1): > 500 nM

SMILES: O=C(COc1ccc(-n2cnnn2)cc1)N1CCN(S(=O)(=O)c2ccc3ccccc3c2)CC1
- AC50 (PKM2; Table 1): 100 to 500 nM

SMILES: COc1ccccc1N1CCN(C(=O)c2ccc(NS(=O)(=O)c3ccc4ccccc4c3)cc2)CC1
- AC50 (PKM2; Table 1): > 500 nM

SMILES: Cc1cc(C)cc(NS(=O)(=O)c2ccc3c(c2)oc(=O)n3C)c1
- AC50 (PKM2; Table 1): < 100 nM

SMILES: O=S(=O)(Nc1ccc2c(c1)OCCO2)c1cncn1-c1ccc(C(F)(F)F)cn1
- AC50 (PKM2; Table 1): > 500 nM

SMILES: O=S(=O)(Nc1ccc(F)cc1)c1cncn1-c1ccc(C(F)(F)F)cn1
- AC50 (PKM2; Table 1): > 500 nM

SMILES: Cc1cc(C)cc(NS(=O)(=O)c2cncn2-c2ncc(C(F)(F)F)cc2Cl)c1
- AC50 (PKM2; Table 1): < 100 nM

SMILES: Cc1cc2oc(=O)n(C)c2cc1S(=O)(=O)Nc1cccc(Cl)c1
- AC50 (PKM2; Table 1): 100 to 500 nM

SMILES: Cc1cc2oc(=O)n(C)c2cc1S(=O)(=O)Nc1ccc(F)c(Cl)c1
- AC50 (PKM2; Table 1): < 100 nM

SMILES: Cc1cc2oc(=O)n(C)c2cc1S(=O)(=O)Nc1cc(F)cc(Cl)c1
- AC50 (PKM2; Table 1): > 500 nM

SMILES: COc1ccccc1N1CCN(C(=O)c2ccc(NS(=O)(=O)c3cccc4cccnc34)cc2)CC1
- AC50 (PKM2; Table 1): < 100 nM

SMILES: Cn1c(=O)oc2cc(S(=O)(=O)Nc3cccc(Cl)c3)ccc21
- AC50 (PKM2; Table 1): < 100 nM

SMILES: O=S(=O)(Nc1ccc2c(c1)OCO2)c1cccn1-c1ncc(C(F)(F)F)cc1Cl
- AC50 (PKM2; Table 1): < 100 nM

SMILES: O=C(c1ccc(NS(=O)(=O)c2ccc(Cl)cc2)cc1)N1CCN(c2ncccn2)CC1
- AC50 (PKM2; Table 1): > 500 nM

SMILES: Cc1cc(C)cc(NS(=O)(=O)c2ccnn2-c2ncc(C(F)(F)F)cc2Cl)c1
- AC50 (PKM2; Table 1): < 100 nM

SMILES: Cc1cc(C)cc(NS(=O)(=O)c2cccn2-c2ncccn2)c1
- AC50 (PKM2; Table 1): < 100 nM

SMILES: O=C(c1ccc(NS(=O)(=O)c2cccc3cccnc23)cc1)N1CCN(c2ncccn2)CC1
- AC50 (PKM2; Table 1): 100 to 500 nM

SMILES: O=C(c1ccc(NS(=O)(=O)c2cccc3cccnc23)cc1)N1CCN(c2ccccc2)CC1
- AC50 (PKM2; Table 1): < 100 nM

SMILES: COc1ccccc1N1CCN(C(=O)c2ccc(NS(=O)(=O)c3cccc4cccnc34)nc2)CC1
- AC50 (PKM2; Table 1): < 100 nM

SMILES: COc1ccccc1N1CCN(C(=O)c2ccc(NS(=O)(=O)c3ccc4c(c3)OCCO4)cc2)CC1
- AC50 (PKM2; Table 1): 100 to 500 nM

SMILES: COc1ccccc1N1CCCN(C(=O)c2ccc(NS(=O)(=O)c3cccc4cccnc34)cc2)CC1
- AC50 (PKM2; Table 1): > 500 nM

SMILES: Cc1cccc(NS(=O)(=O)c2cncn2-c2ncc(C(F)(F)F)cc2Cl)c1
- AC50 (PKM2; Table 1): < 100 nM

SMILES: COc1ccccc1N1CCN(C(=O)c2ccc(N(C)S(=O)(=O)c3cccc4cccnc34)cc2)CC1
- AC50 (PKM2; Table 1): < 100 nM

SMILES: O=S(=O)(Nc1cc(F)cc(F)c1)c1cccn1-c1ncc(C(F)(F)F)cc1Cl
- AC50 (PKM2; Table 1): > 500 nM

SMILES: Cc1cc(NS(=O)(=O)c2cccn2-c2ncc(C(F)(F)F)cc2Cl)ccc1F
- AC50 (PKM2; Table 1): < 100 nM

SMILES: COc1ccccc1N1CCN(C(=O)c2ccc(NS(=O)(=O)c3ccc(Cl)c4nonc34)cc2)CC1
- AC50 (PKM2; Table 1): > 500 nM

SMILES: O=S(=O)(Nc1ccc(F)c(Cl)c1)c1cncn1-c1cnccn1
- AC50 (PKM2; Table 1): < 100 nM

SMILES: O=S(=O)(Nc1ccc(Cl)cc1)c1cncn1-c1cnccn1
- AC50 (PKM2; Table 1): > 500 nM

SMILES: Cc1cc(NS(=O)(=O)c2cnn(-c3cnccn3)c2)ccc1F
- AC50 (PKM2; Table 1): 100 to 500 nM

SMILES: O=C(c1ccc(NS(=O)(=O)c2cccc3cccnc23)cc1)N1CCN(Cc2ccccc2)CC1
- AC50 (PKM2; Table 1): < 100 nM

SMILES: O=C(c1ccc(NS(=O)(=O)c2cccc3cccnc23)cc1)N1CCN(Cc2ccccn2)CC1
- AC50 (PKM2; Table 1): < 100 nM

SMILES: COc1cccc(CN2CCN(C(=O)c3ccc(NS(=O)(=O)c4cccc5cccnc45)cc3)CC2)c1
- AC50 (PKM2; Table 1): < 100 nM

SMILES: O=C(c1ccc(NS(=O)(=O)c2cccc3cccnc23)cc1)N1CCN(Cc2cccc(Cl)c2)CC1
- AC50 (PKM2; Table 1): < 100 nM

SMILES: O=C(c1ccc(NS(=O)(=O)c2cccc3cccnc23)cc1)N1CCN(Cc2ccc(Br)cc2)CC1
- AC50 (PKM2; Table 1): < 100 nM

SMILES: O=C(c1ccc(NS(=O)(=O)c2cccc3cccnc23)cc1)N1CCN(Cc2ccc(F)cc2)CC1
- AC50 (PKM2; Table 1): < 100 nM

SMILES: N#Cc1ccc(CN2CCN(C(=O)c3ccc(NS(=O)(=O)c4cccc5cccnc45)cc3)CC2)cc1
- AC50 (PKM2; Table 1): < 100 nM

SMILES: CC(=O)c1ccc(CN2CCN(C(=O)c3ccc(NS(=O)(=O)c4cccc5cccnc45)cc3)CC2)cc1
- AC50 (PKM2; Table 1): 100 to 500 nM

SMILES: N#Cc1ccccc1CN1CCN(C(=O)c2ccc(NS(=O)(=O)c3cccc4cccnc34)cc2)CC1
- AC50 (PKM2; Table 1): < 100 nM

SMILES: O=C(c1ccc(NS(=O)(=O)c2cccc3cccnc23)cc1)N1CCN(Cc2ccc(Cl)cc2)CC1
- AC50 (PKM2; Table 1): < 100 nM

SMILES: N#Cc1cccc(CN2CCN(C(=O)c3ccc(NS(=O)(=O)c4cccc5cccnc45)cc3)CC2)c1
- AC50 (PKM2; Table 1): < 100 nM

SMILES: CC(=O)c1ccccc1CN1CCN(C(=O)c2ccc(NS(=O)(=O)c3cccc4cccnc34)cc2)CC1
- AC50 (PKM2; Table 1): < 100 nM

SMILES: O=C(c1ccc(NS(=O)(=O)c2cccc3cccnc23)cc1)N1CCN(Cc2ccccc2Cl)CC1
- AC50 (PKM2; Table 1): < 100 nM

SMILES: O=C(c1ccc(NS(=O)(=O)c2cccc3cccnc23)cc1)N1CCN(Cc2ccc(Cl)nc2)CC1
- AC50 (PKM2; Table 1): < 100 nM

SMILES: O=C(c1ccc(NS(=O)(=O)c2cccc3cccnc23)cc1)N1CCN(Cc2cccnc2Cl)CC1
- AC50 (PKM2; Table 1): < 100 nM

SMILES: COc1ccccc1CN1CCN(C(=O)c2ccc(NS(=O)(=O)c3cccc4cccnc34)cc2)CC1
- AC50 (PKM2; Table 1): < 100 nM

SMILES: Nc1cccc(S(=O)(=O)N2CCCN(S(=O)(=O)c3cccc4c3OCCO4)CC2)c1
- AC50 (PKM2; Table 1): < 100 nM

SMILES: COc1ccc(Cl)cc1S(=O)(=O)Nc1ccc2sc(=O)n(C)c2c1
- AC50 (PKM2; Table 2): 1000 to 10000 nM

SMILES: Cn1c(=O)oc2cc(NS(=O)(=O)c3cccs3)ccc21
- AC50 (PKM2; Table 2): 10000 to 50000 nM

SMILES: Cc1ccc(OCC(=O)N2CCN(S(=O)(=O)c3cc4oc(=O)n(C)c4cc3C)CC2)cc1
- AC50 (PKM2; Table 2): 1000 to 10000 nM

SMILES: CC(=O)O[C@@]12CO[C@@H]1C[C@H](O)[C@@]1(C)C(=O)[C@H](O)C3=C(C)[C@@H](OC(=O)[C@H](O)[C@@H](NC(=O)OC(C)(C)C)c4ccccc4)C[C@@](O)([C@@H](OC(=O)c4ccccc4)[C@H]21)C3(C)C [docetaxel]
- potency of cytotoxic agent in BME compared with RPMI (A549 cells): decreased potency

SMILES: COc1cccc2c1C(=O)c1c(O)c3c(c(O)c1C2=O)C[C@@](O)(C(=O)CO)C[C@@H]3O[C@H]1C[C@H](N)[C@H](O)[C@H](C)O1 [doxorubicin]
- potency of cytotoxic agent in BME compared with RPMI (A549 cells): decreased potency

SMILES: COc1ccc(Cl)cc1S(=O)(=O)Nc1ccc2oc(=O)n(C)c2c1 [drawing 74]
- AC50 (PKM2; Table 2): > 100000 nM

SMILES: COc1ccc(Cl)cc1S(=O)(=O)Nc1ccc2oc(=O)n(C)c2c1 [drawing 91]
- AC50 (PKM2; Table 2): < 1000 nM

SMILES: CC[C@]1(O)C[C@@H]2CN(CCc3c([nH]c4ccccc34)[C@@](C(=O)OC)(c3cc4c(cc3OC)N(C)[C@H]3[C@@](O)(C(=O)OC)[C@H](OC(C)=O)[C@]5(CC)C=CCN6CC[C@]43[C@@H]65)C2)C1 [vinblastine]
- potency of cytotoxic agent in BME compared with RPMI (A549 cells): decreased potency
